Reference: patent publication US20080176936A1, “Classes of Compounds that Interact with Integrins” (priority 2005, published 2008)

Key:
[1] = target: T1, αllbβ3 integrin (Homo sapiens, UniProt P05106+P08514); experiment: ELISA: inhibition of binding of αllbβ3 integrin membrane preparation to coated extracellular matrix protein; details: human platelet membrane preparation
T1 construct: Human platelet membrane preparations were used as a source of αllbβ3 integrin; from tissue; host or cells: human platelets (membrane preparation)
T1 sequence (P08514 32-887 limits assumed): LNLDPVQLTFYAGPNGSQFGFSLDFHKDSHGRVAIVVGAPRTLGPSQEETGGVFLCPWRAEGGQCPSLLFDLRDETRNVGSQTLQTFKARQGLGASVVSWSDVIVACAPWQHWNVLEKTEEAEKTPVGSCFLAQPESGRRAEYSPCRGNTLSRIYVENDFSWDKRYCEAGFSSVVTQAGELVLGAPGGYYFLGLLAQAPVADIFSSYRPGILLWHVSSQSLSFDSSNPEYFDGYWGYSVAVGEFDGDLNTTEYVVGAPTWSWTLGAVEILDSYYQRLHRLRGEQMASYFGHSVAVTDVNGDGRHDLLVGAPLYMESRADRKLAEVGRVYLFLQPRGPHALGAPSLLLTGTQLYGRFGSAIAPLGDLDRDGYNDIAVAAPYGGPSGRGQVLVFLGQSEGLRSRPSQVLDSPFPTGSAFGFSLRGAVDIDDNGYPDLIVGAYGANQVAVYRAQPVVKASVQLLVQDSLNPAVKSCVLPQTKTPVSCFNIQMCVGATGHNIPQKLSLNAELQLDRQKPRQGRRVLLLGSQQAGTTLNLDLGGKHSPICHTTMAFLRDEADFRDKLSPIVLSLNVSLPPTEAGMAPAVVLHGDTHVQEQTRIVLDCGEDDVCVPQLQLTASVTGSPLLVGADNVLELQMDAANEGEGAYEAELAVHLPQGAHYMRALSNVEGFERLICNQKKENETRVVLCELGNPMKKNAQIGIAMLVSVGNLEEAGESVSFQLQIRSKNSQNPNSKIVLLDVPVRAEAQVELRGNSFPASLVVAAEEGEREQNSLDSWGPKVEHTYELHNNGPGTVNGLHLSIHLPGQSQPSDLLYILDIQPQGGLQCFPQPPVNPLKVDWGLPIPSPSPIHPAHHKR
T1 sequence (P08514 891-1039 partner limits assumed): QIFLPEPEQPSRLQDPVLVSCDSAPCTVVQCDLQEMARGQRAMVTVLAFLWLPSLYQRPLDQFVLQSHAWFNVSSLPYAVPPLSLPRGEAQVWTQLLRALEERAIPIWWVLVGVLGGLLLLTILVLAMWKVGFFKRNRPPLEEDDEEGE
T1 sequence (P05106 27-788): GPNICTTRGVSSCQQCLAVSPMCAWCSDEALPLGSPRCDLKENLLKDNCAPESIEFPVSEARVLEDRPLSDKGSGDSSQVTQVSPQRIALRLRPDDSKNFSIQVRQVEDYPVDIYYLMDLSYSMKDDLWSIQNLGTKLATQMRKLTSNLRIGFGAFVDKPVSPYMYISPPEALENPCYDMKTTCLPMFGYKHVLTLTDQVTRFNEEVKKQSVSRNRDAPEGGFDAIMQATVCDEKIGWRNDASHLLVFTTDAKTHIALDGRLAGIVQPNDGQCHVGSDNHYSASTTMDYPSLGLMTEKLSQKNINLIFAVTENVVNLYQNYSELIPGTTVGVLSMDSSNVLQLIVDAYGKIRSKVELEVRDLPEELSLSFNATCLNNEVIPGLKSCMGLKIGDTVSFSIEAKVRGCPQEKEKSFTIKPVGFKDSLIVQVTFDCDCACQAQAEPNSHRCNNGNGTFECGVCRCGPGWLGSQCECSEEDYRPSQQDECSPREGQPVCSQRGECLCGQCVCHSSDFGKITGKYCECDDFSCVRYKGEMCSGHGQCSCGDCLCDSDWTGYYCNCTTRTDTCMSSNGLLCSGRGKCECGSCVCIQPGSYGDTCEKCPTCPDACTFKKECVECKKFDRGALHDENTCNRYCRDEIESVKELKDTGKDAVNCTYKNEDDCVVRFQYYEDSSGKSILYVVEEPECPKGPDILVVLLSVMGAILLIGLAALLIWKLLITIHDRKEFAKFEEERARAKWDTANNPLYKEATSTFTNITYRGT
Protocol: (§1) An ELISA assay based on the published method of Bethert et al., 2000, J Biol Chem 275, 33308-23, was employed.
(§2) Briefly, appropriate microtitre plates were coated with either Fibrinogen or Vitronectin (10 μg/well). These extracellular matrix proteins contain the RGD amino acid sequence that is recognized by αllbβ3 integrin. Human platelet membrane preparations were used as a source of αllbβ3 integrin and the cell line WM-115 was used as a source of αVβ3 integrin. Inhibition of the binding of αllbβ3 integrin containing membrane preparations to the extracellular matrix protein was determined by pre-incubating the platelet membrane preparation with test or control compounds. The binding of the αllbβ3 integrin containing membrane was the quantitated by using a rabbit anti-integrinβ3 antibody, a horse radish peroxidase coupled second antibody and a standard colorimetric detection system.

[2] = target: T2, αVβ3 integrin (Homo sapiens, UniProt P05106+P06756); experiment: ELISA: inhibition of binding of αVβ3 integrin (source WM-115 cell line) to coated extracellular matrix protein; details: WM-115 cell line as integrin source
T2 construct: the cell line WM-115 was used as a source of αVβ3 integrin; endogenous in cells; host or cells: WM-115 cell line
T2 sequence (P06756 31-889 limits assumed): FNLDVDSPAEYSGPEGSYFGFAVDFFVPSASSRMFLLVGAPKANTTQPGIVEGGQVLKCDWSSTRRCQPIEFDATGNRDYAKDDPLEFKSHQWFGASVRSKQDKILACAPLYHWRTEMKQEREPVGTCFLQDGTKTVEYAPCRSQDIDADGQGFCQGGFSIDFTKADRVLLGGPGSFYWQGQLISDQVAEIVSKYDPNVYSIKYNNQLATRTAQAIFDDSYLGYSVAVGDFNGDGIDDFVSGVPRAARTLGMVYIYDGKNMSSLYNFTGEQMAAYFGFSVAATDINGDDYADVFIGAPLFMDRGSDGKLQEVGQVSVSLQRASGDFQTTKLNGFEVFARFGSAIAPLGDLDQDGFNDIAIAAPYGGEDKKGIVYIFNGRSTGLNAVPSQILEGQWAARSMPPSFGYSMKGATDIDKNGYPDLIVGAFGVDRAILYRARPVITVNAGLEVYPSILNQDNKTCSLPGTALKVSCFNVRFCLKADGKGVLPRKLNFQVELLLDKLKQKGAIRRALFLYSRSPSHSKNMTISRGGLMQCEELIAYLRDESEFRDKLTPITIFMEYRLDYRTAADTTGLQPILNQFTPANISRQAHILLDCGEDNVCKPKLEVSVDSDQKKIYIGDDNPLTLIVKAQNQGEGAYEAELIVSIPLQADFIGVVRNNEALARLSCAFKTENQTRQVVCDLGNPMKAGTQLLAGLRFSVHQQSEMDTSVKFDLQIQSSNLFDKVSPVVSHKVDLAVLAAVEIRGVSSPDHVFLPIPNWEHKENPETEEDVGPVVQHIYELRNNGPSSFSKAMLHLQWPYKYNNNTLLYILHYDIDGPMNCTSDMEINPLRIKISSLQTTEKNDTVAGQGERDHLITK
T2 sequence (P06756 891-1048 partner limits assumed): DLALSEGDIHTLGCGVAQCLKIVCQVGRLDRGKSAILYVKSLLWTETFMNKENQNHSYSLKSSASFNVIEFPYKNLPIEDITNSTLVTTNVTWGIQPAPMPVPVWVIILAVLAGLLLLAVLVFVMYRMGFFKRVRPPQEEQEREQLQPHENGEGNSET
T2 sequence (P05106 27-788): as the sequence (P05106 27-788) above
Protocol: as §1, §2

Structure (SMILES)	INHIBITION @ 250 uM RECEPTOR allBb3 SUBSTRATE FIBRINOGEN [1]	INHIBITION 250 uM RECEPTOR allBb3 SUBSTRATE VITRONECTIN [1]	INHIBITION 250 uM RECEPTOR aVb3 SUBSTRATE FIBRINOGEN [2]
CCOC1O[C@H](COCc2cccc(N)c2)[C@@H](O)[C@H](OCc2ccc(Br)cc2)[C@H]1NC(=O)CCC(=O)O (single isomer, unassigned) [Compound 44]	++ (61% to 80% inhibition at 250 micromolar)	− (0% to 35% inhibition at 250 micromolar)	+ (36% to 60% inhibition at 250 micromolar)
CCOC1O[C@H](COCc2cccc(N)c2)[C@@H](O)[C@H](OCc2ccc(Br)cc2)[C@H]1NC(=O)CCC(=O)O (single isomer, unassigned) [Compound 45]	++ (61% to 80% inhibition at 250 micromolar)	+++ (81% to 100% inhibition at 250 micromolar)	+++ (81% to 100% inhibition at 250 micromolar)
Nc1cccc(COC[C@H]2OC(O)[C@H](NC(=O)CCC(=O)O)[C@@H](OCc3ccc(Br)cc3)[C@@H]2O)c1 (single isomer, unassigned) [Compound 46]	+ (36% to 60% inhibition at 250 micromolar)	+++ (81% to 100% inhibition at 250 micromolar)	+++ (81% to 100% inhibition at 250 micromolar)
Nc1cccc(COC[C@H]2OC(O)[C@H](NC(=O)CCC(=O)O)[C@@H](OCc3ccc(Br)cc3)[C@@H]2O)c1 (single isomer, unassigned) [Compound 47]	+ (36% to 60% inhibition at 250 micromolar)	+++ (81% to 100% inhibition at 250 micromolar)	− (0% to 35% inhibition at 250 micromolar)
CCOC1O[C@H](COCc2ccccc2)[C@@H](O)[C@H](OCC(=O)O)[C@H]1NC(=O)CCNC(=N)N (single isomer, unassigned) [Compound 48]	++ (61% to 80% inhibition at 250 micromolar)	+++ (81% to 100% inhibition at 250 micromolar)	+++ (81% to 100% inhibition at 250 micromolar)
CCOC1O[C@H](COCc2ccccc2)[C@@H](O)[C@H](OCC(=O)O)[C@H]1NC(=O)CCNC(=N)N (single isomer, unassigned) [Compound 49]	++ (61% to 80% inhibition at 250 micromolar)	+++ (81% to 100% inhibition at 250 micromolar)	+++ (81% to 100% inhibition at 250 micromolar)
CCOC1O[C@H](COCc2ccc(Br)cc2)[C@@H](O)[C@H](OCC(=O)O)[C@H]1NC(=O)CCNC(=N)N (single isomer, unassigned) [Compound 50]	+ (36% to 60% inhibition at 250 micromolar)	+++ (81% to 100% inhibition at 250 micromolar)	+++ (81% to 100% inhibition at 250 micromolar)
CCOC1O[C@H](COCc2ccc(Br)cc2)[C@@H](O)[C@H](OCC(=O)O)[C@H]1NC(=O)CCNC(=N)N (single isomer, unassigned) [Compound 51]	++ (61% to 80% inhibition at 250 micromolar)	+++ (81% to 100% inhibition at 250 micromolar)	++ (61% to 80% inhibition at 250 micromolar)
CCOC1O[C@H](COCc2ccc(Br)cc2)[C@@H](O)[C@H](OCC(=O)O)[C@H]1NC(=O)CCNC(=N)N (single isomer, unassigned) [Compound 52]	+ (36% to 60% inhibition at 250 micromolar)	++ (61% to 80% inhibition at 250 micromolar)	+++ (81% to 100% inhibition at 250 micromolar)
CCOC1O[C@H](COCc2cccc(N)c2)[C@@H](O)[C@H](OCC(=O)O)[C@H]1NC(=O)c1ccccc1 (single isomer, unassigned) [Compound 54]	− (0% to 35% inhibition at 250 micromolar)	++ (61% to 80% inhibition at 250 micromolar)	+ (36% to 60% inhibition at 250 micromolar)
CCOC1O[C@H](COCc2cccc(N)c2)[C@@H](O)[C@H](OCC(=O)O)[C@H]1NC(=O)c1ccccc1 (single isomer, unassigned) [Compound 55]	+ (36% to 60% inhibition at 250 micromolar)	+++ (81% to 100% inhibition at 250 micromolar)	+++ (81% to 100% inhibition at 250 micromolar)
CCOC1O[C@H](COCc2ccccc2)[C@@H](O)[C@H](OCc2ccc(C(=O)O)cc2)[C@H]1NC(=O)CCNC(=N)N (single isomer, unassigned) [Compound 57]	− (0% to 35% inhibition at 250 micromolar)	+++ (81% to 100% inhibition at 250 micromolar)	+++ (81% to 100% inhibition at 250 micromolar)
CCOC1O[C@H](COCc2ccccc2)[C@@H](O)[C@H](OCc2ccc(C(=O)O)cc2)[C@H]1NC(=O)CCNC(=N)N (single isomer, unassigned) [Compound 58]	+ (36% to 60% inhibition at 250 micromolar)	+++ (81% to 100% inhibition at 250 micromolar)	+++ (81% to 100% inhibition at 250 micromolar)
N=C(N)NCCC(=O)N[C@H]1C(O)O[C@H](COCc2ccccc2)[C@@H](O)[C@@H]1OCc1ccc(C(=O)O)cc1 (single isomer, unassigned) [Compound 59]	+ (36% to 60% inhibition at 250 micromolar)	+++ (81% to 100% inhibition at 250 micromolar)	+++ (81% to 100% inhibition at 250 micromolar)
CCOC1O[C@H](COCc2ccc(Br)cc2)[C@@H](O)[C@H](OCc2ccc(C(=O)O)cc2)[C@H]1NC(=O)CCNC(=N)N (single isomer, unassigned) [Compound 60]	+ (36% to 60% inhibition at 250 micromolar)	+++ (81% to 100% inhibition at 250 micromolar)	+++ (81% to 100% inhibition at 250 micromolar)
CCOC1O[C@H](COCc2ccc(Br)cc2)[C@@H](O)[C@H](OCc2ccc(C(=O)O)cc2)[C@H]1NC(=O)CCNC(=N)N (single isomer, unassigned) [Compound 61]	− (0% to 35% inhibition at 250 micromolar)	+++ (81% to 100% inhibition at 250 micromolar)	+++ (81% to 100% inhibition at 250 micromolar)
N=C(N)NCCC(=O)N[C@H]1C(O)O[C@H](COCc2ccc(Br)cc2)[C@@H](O)[C@@H]1OCc1ccc(C(=O)O)cc1 (single isomer, unassigned) [Compound 63]	++ (61% to 80% inhibition at 250 micromolar)	+++ (81% to 100% inhibition at 250 micromolar)	− (0% to 35% inhibition at 250 micromolar)
CCOC1OC(COCc2cccc(N)c2)C(O)C(OCc2ccc(C(=O)O)cc2)C1NC(=O)c1ccc(Cl)cc1 (single isomer, unassigned) [Compound 64]	− (0% to 35% inhibition at 250 micromolar)	++ (61% to 80% inhibition at 250 micromolar)	+ (36% to 60% inhibition at 250 micromolar)
Nc1cccc(COCC2OC(O)C(NC(=O)c3ccc(Cl)cc3)C(OCc3ccc(C(=O)O)cc3)C2O)c1 (single isomer, unassigned) [Compound 66]	+ (36% to 60% inhibition at 250 micromolar)	+++ (81% to 100% inhibition at 250 micromolar)	+ (36% to 60% inhibition at 250 micromolar)
Nc1cccc(COCC2OC(O)C(NC(=O)c3ccc(Cl)cc3)C(OCc3ccc(C(=O)O)cc3)C2O)c1 (single isomer, unassigned) [Compound 67]	+ (36% to 60% inhibition at 250 micromolar)	+++ (81% to 100% inhibition at 250 micromolar)	− (0% to 35% inhibition at 250 micromolar)
